Assay results published in PMC11879692, “PDE4 inhibitor rolipram represses hedgehog signaling via ubiquitin-mediated proteolysis of GLI transcription factors to regress breast cancer” (The Journal of Biological Chemistry, 2025).

Tests used:
PKA = assay: Immunohistochemistry of tumor tissue, PKA; format: in vivo, BALB/c mice
Description: Solid tumors were developed in BALB/c mice (n = 3) except the control group (group I) by injecting 1 × 10^4 viable 4T1 (RRID: CVCL_0125) mice breast carcinoma cells (resuspended in 50 μl of PBS) into the inguinal fourth mammary fat pad, and the tumor was allowed to develop for 14 days ([37], [38]). Mice were randomly divided into three groups, viz., untreated tumor (group II), mice treated intraperitoneally with 1 mg//kg bodyweight of rolipram (group III), and mice receiving 5 mg/kg bodyweight of rolipram, intraperitoneally (group IV) ([39], [40]). After 14 days, the mice were sacrificed. Lung, kidney, liver, serum, and the tumors were collected for further experiments ([15]).
Mice mammary fat pad and mammary tumor tissues were processed as for histology, and 5 μm-thick sections were mounted on glass slides. The tissue sections were deparaffinized with xylene and hydrated with […] grades of alcohols (100% to 70%). Rehydrated sections were equilibrated in PBS. Antigen retrieval was performed by boiling the sections in a 0.1 M sodium citrate buffer (pH 6.0) for 10 min. […] The frequency (cell count) of positive and negative cells as well as the mean absorbance of the positive cells were plotted using MatPlotLib (RRID: SCR_008624), a Python (RRID: SCR_008394) 2D plotting library.

MCF-7 cells [1] = assay: Flow cytometric analysis of DNA content (PI); format: cell-based, human; conditions: MCF-7, IC50 dose, 24 h, vs control
Description: (§1) After treating the cells with rolipram for 24 h, cells were stained with PI (BD Pharmingen PI/RNase Staining Buffer; BD Biosciences; catalog no.: BD550825), following fixing of cells with 70% ethanol for 1 h at 4°C and permeabilization with 0.1% Triton X-100 (Sigma–Aldrich; catalog no.: X100). The cells were then analyzed using BD LSRFortessa flow cytometer (RRID: SCR_019600), and the data were analyzed using BD FACSDiva 9.0 software ([30]) (RRID: SCR_001456).

MDA-MB-231 cells [2] = assay: Flow cytometric analysis of DNA content (PI); format: cell-based, human; conditions: MDA-MB-231, IC50 dose, 24 h, vs control
Description: as §1

MCF-7 cells [3] = assay: MTT cell viability assay; format: cell-based; conditions: Homo sapiens, MCF7, 24 h, read-out: concentration for 50% growth inhibition (IC50)
Description: (§2) To determine the concentration of rolipram required for 50% growth inhibition (IC50) of MCF-7 and MDA-MB-231 cells, MTT (3-[4,5-dimethylthiazol-2-yl]-2,5 diphenyl tetrazolium bromide) assay, which relies on the reduction of MTT to form purple-colored formazan crystals by mitochondrial dehydrogenases, was performed ([27]). Cells were seeded in a 96-well plate at a density of 3 × 10^3 cells/well and treated with increasing concentrations of rolipram ranging from 1 to 80 μM. MTT (G Biosciences; catalog no.: RC1130) was added after 24 h of treatment, formazan crystals were dissolved in 100 μl of DMSO, and absorbance measured at 595 nm using the BioRad iMark Microplate Reader (RRID: SCR_023799). The percentage of metabolically active cells was calculated with respect to untreated control cells, negating the blank reading. Graphs were plotted for the percentages of viable cells against the concentrations of rolipram to obtain linear trend-line equations, which were used to derive the IC50 concentration of rolipram for each cell lines. The IC50 doses were used for all subsequent experiments ([28]).

MDA-MB-231 cells [4] = assay: MTT cell viability assay; format: cell-based; conditions: Homo sapiens, 24 h, read-out: concentration for 50% growth inhibition (IC50)
Description: as §2

MDA-MB-231 cells [5] = assay: Western blot analysis of protein expression; format: cell-based, human
Description: After treatment of cells with rolipram, proteins were extracted from cells by lysing the cells with radioimmunoprecipitation assay buffer, comprising of 150 mM NaCl, 1% Triton X-100, 0.5% sodium deoxycholate, and 0.1% SDS. Equal amount of proteins (40 μg) were resolved using SDS-PAGE before transferring onto nitrocellulose membrane (Immobilon-NC Transfer Membrane; Merck Millipore; catalog no.: HATF00010). The membranes were then incubated overnight with primary antibody at a dilution of 1:1000 at 4°C followed by incubation with secondary antibodies at a dilution of 1:5000 for 2 h at room temperature. Immune detection was performed using femtoLUCENT PLUS-HRP (G-Biosciences; catalog no.: 786-003), and the image was obtained from the Bio-Rad ChemiDoc XRS+ system. Analysis of protein expression was carried out using Bio-Rad Image Lab software (RRID: SCR_014210) and National Institutes of Health ImageJ software ([34]) (RRID: SCR_003070). All protein expressions were normalized against β-tubulin (loading control).

[6] = MDA-MB-231, IC50 dose, time course

Compound: COc1ccc(C2CNC(=O)C2)cc1OC1CCCC1 (stereo not shown) [rolipram, Rolipram]
- increase of PKA-positive cells compared with tumor tissues (PKA; 1 mg/kg bodyweight): ~1.5 fold
- increase of PKA-positive cells compared with tumor tissues (PKA; 5 mg/kg bodyweight): ~1.5 fold
- G0/G1 cell population (MCF-7 cells [1]): significantly increased
- G0/G1 cell population (MDA-MB-231 cells [2]): significantly increased
- IC50 (MCF-7 cells [3]): 38 µM
- IC50 (MDA-MB-231 cells [4]): 53 µM
- reduction of MMP9 expression (MDA-MB-231 cells [5]; MDA-MB-231 (TNBC cells)): twofold
- downregulation of expression of MMP2 (MDA-MB-231 cells [5]; MDA-MB-231, IC50 dose): twofold
- levels of phospho-Akt (MDA-MB-231 cells [5]; MDA-MB-231, IC50 dose): reduced
- levels of phosphorylated-GSK3β (MDA-MB-231 cells [5]; MDA-MB-231, IC50 dose): reduced levels
- level of GLI2R (MDA-MB-231 cells [5]; MDA-MB-231, IC50 dose, 48 h): decreased slightly
- level of GLI2FL (MDA-MB-231 cells [5]; [6]): significantly decreased with time
- level of GLI3R (MDA-MB-231 cells [5]; [6]): increased with time
- levels of PKA (MDA-MB-231 cells [5]; [6]): increased levels
- level of GLI1 (MDA-MB-231 cells [5]; MDA-MB-231, IC50 dose, time-dependent): reduced
- level of GLI2R (MDA-MB-231 cells [5]; MDA-MB-231, IC50 dose, up to 24 h): increased up to 24 h
- elevated expression of PTEN (MDA-MB-231 cells [5]; MDA-MB-231, IC50 dose, within 12 h): threefold
- level of E-cadherin (MDA-MB-231 cells [5]; MDA-MB-231, after 24 h): no conclusive change
- levels of vimentin (MDA-MB-231 cells [5]; MDA-MB-231, after 48 h): decrease
- levels of GLI proteins (MDA-MB-231 cells [5]; MDA-MB-231, cotreatment with H89 (10 μM), 24 h, vs control and H89 only): unaltered
- repressor forms of GLI2 and GLI3 (MDA-MB-231 cells [5]; MDA-MB-231, in combination with TAK-243 (0.1 μM), 24 h): failed to produce the repressor forms
- effects on expressions of MMPs, E-cadherin, and vimentin (MDA-MB-231 cells [5]; MDA-MB-231, in the presence of TAK-243): failed to exert any of the aforementioned effects
